Data as given in paper doi:10.64898/2025.12.10.692519v1 (biorxiv, 2025).
Like-named read-outs stand apart in the source and are kept apart here.

How the values were obtained:
Test in all cases: cells
TG-LAM-134-P0 = system: TG-LAM-134-P0; parameters: species or system primary AML patient blasts; conditions: 48 h
TG-LAM-135-P0 = system: TG-LAM-135-P0; parameters: species or system primary AML patient blasts; conditions: 48 h
TG-LAM-136-P0 = system: TG-LAM-136-P0; parameters: species or system primary AML patient blasts; conditions: 48 h
TG-LAM-138-P0 = system: TG-LAM-138-P0; parameters: species or system primary AML patient blasts; conditions: 48 h
TG-LAM-139-P0 = system: TG-LAM-139-P0; parameters: species or system primary AML patient blasts; conditions: 48 h
TG-LAM-140-P0 = system: TG-LAM-140-P0; parameters: species or system primary AML patient blasts; conditions: 48 h
TG-LAM-141-P0 = system: TG-LAM-141-P0; parameters: species or system primary AML patient blasts; conditions: 48 h
TG-LAM-142-P0 = system: TG-LAM-142-P0; parameters: species or system primary AML patient blasts; conditions: 48 h
TG-LAM-143-P0 = system: TG-LAM-143-P0; parameters: species or system primary AML patient blasts; conditions: 48 h, read-out: IC50 (µM) / AzaC
TG-LAM-144-P0 = system: TG-LAM-144-P0; parameters: species or system primary AML patient blasts; conditions: 48 h
TG-LAM-145-P0 = system: TG-LAM-145-P0; parameters: species or system primary AML patient blasts; conditions: 48 h
TG-LAM-75-P3 = system: TG-LAM-75-P3; parameters: species or system primary AML patient blasts; conditions: 48 h, read-out: IC50 (µM) / AzaC
TG-LAM-76-P3 = system: TG-LAM-76-P3; parameters: species or system primary AML patient blasts; conditions: 48 h, read-out: IC50 (µM) / AzaC
TG-LAM-77-P0 = system: TG-LAM-77-P0; parameters: species or system primary AML patient blasts; conditions: 48 h
A-549 = conditions: Homo sapiens, A549, 144 h
DU-145 = conditions: Homo sapiens, DU-145, 144 h
H-1299 = conditions: Homo sapiens, NCI-H1299, 144 h
HEP-2 = conditions: Homo sapiens, HEp-2, 144 h
HL-60 = conditions: Homo sapiens, HL-60, 144 h
HRT-18 = conditions: Homo sapiens, HRT-18, 144 h
HUT-78 = conditions: Homo sapiens, HuT78, 144 h
Karpas-299 = conditions: Homo sapiens, KARPAS-299, 144 h
MESSA [1] = conditions: Homo sapiens, MES-SA, 144 h
NALM-6 = conditions: Homo sapiens, NALM-6, 144 h
REC-1 = conditions: Homo sapiens, Rec1, 144 h
SW-872 = conditions: Homo sapiens, SW872, 144 h
U2OS = conditions: Homo sapiens, U2OS, 144 h, read-out: Eribulin
786-O = conditions: Homo sapiens, 786-0, 144 h, read-out: Lexibulin (CYT997)
ACHN = conditions: Homo sapiens, ACHN, 144 h
CCRF-CEM = conditions: Homo sapiens, CCRF-CEM, 144 h, read-out: Lexibulin (CYT997)
HGC-27 = conditions: Homo sapiens, HGC-27, 144 h, read-out: Lexibulin (CYT997)
LnCaP = conditions: Homo sapiens, LNCaP, 144 h
MCF-7 = conditions: Homo sapiens, MCF7, 144 h
MDA-MB-468 = conditions: Homo sapiens, MDA-MB-468, 144 h, read-out: Lexibulin (CYT997)
MOLM-14 = conditions: Homo sapiens, MOLM-14, 144 h, read-out: Lexibulin (CYT997)
NOMO-1 = conditions: Homo sapiens, NOMO-1, 144 h, read-out: Lexibulin (CYT997)
PANC-1 = conditions: Homo sapiens, PANC-1, 144 h, read-out: Lexibulin (CYT997)
PC-3 = conditions: Homo sapiens, PC-3, 144 h
PLC-PRF5 = conditions: Homo sapiens, PLC-PRF-5, 144 h, read-out: Lexibulin (CYT997)
THP-1 = conditions: Homo sapiens, THP-1, 144 h, read-out: Lexibulin (CYT997)
Tov21G = conditions: Homo sapiens, TOV21G, 144 h, read-out: Lexibulin (CYT997)
U-118 = conditions: 144 h, read-out: Lexibulin (CYT997)
U87-MG = conditions: Homo sapiens, U-87 MG, 144 h, read-out: Lexibulin (CYT997)
MESSA [2] = system: MESSA; parameters: species or system MES-SA/Mx2; conditions: Homo sapiens, MES-SA, read-out: MES-SA

SMILES: Nc1ncn([C@@H]2O[C@H](CO)[C@@H](O)[C@H]2O)c(=O)n1 [5-azacytidine]
- IC50 (TG-LAM-134-P0; read-out: IC50 (µM) / AzaC): 39.1 µM
- IC50 (TG-LAM-135-P0; read-out: IC50 (µM) / AzaC): > 50 µM
- IC50 (TG-LAM-136-P0; read-out: IC50 (µM) / AzaC): > 50 µM
- IC50 (TG-LAM-138-P0; read-out: IC50 (µM) / AzaC): > 50 µM
- IC50 (TG-LAM-139-P0; read-out: IC50 (µM) / AzaC): 38.5 µM
- IC50 (TG-LAM-140-P0; read-out: IC50 (µM) / AzaC): 16.7 µM
- IC50 (TG-LAM-141-P0; read-out: IC50 (µM) / AzaC): 20.4 µM
- IC50 (TG-LAM-142-P0; read-out: IC50 (µM) / AzaC): > 50 µM
- IC50 (TG-LAM-143-P0): 29.2 µM
- IC50 (TG-LAM-144-P0; read-out: IC50 (µM) / AzaC): 41.7 µM
- IC50 (TG-LAM-145-P0; read-out: IC50 (µM) / AzaC): 49.5 µM
- IC50 (TG-LAM-75-P3): 13 µM
- IC50 (TG-LAM-76-P3): 9.7 µM
- IC50 (TG-LAM-77-P0; read-out: IC50 (µM) / AzaC): 19.2 µM

SMILES: C=C1C[C@@H]2CC[C@@]34C[C@H]5O[C@H]6[C@@H](O3)[C@H]3O[C@H](CC[C@@H]3O[C@H]6[C@H]5O4)CC(=O)C[C@@H]3[C@@H](OC)[C@@H](C[C@H](O)CN)O[C@H]3C[C@H]3O[C@@H](CC[C@@H]1O2)C[C@@H](C)C3=C [Eribulin]
- IC50 (A-549; read-out: Eribulin): 3 nM
- IC50 (DU-145; read-out: Eribulin): 2 nM
- IC50 (H-1299; read-out: Eribulin): 75 nM
- IC50 (HEP-2; read-out: Eribulin): 39 nM
- IC50 (HL-60; read-out: Eribulin): 2 nM
- IC50 (HRT-18; read-out: Eribulin): 99 nM
- IC50 (HUT-78; read-out: Eribulin): 1 nM
- IC50 (Karpas-299; read-out: Eribulin): 1 nM
- IC50 (MESSA [1]; read-out: Eribulin): 121 nM
- IC50 (NALM-6; read-out: Eribulin): 2 nM
- IC50 (REC-1; read-out: Eribulin): 125 nM
- IC50 (SW-872; read-out: Eribulin): 83 nM
- IC50 (U2OS): 32 nM

SMILES: CCC[C@H](Nc1nc(-c2ccc(NC(=O)NCC)c(OC)c2)ncc1C)c1cccnc1 [Lexibulin]
- IC50 (786-O): 165 nM
- IC50 (A-549; read-out: Lexibulin (CYT997)): 21 nM
- IC50 (ACHN; read-out: Lexibulin (CYT997)): 36 nM
- IC50 (CCRF-CEM): 8 nM
- IC50 (DU-145; read-out: Lexibulin (CYT997)): 32 nM
- IC50 (H-1299; read-out: Lexibulin (CYT997)): 7 nM
- IC50 (HEP-2; read-out: Lexibulin (CYT997)): 16 nM
- IC50 (HGC-27): 8 nM
- IC50 (HL-60; read-out: Lexibulin (CYT997)): 8 nM
- IC50 (HRT-18; read-out: Lexibulin (CYT997)): 31 nM
- IC50 (HUT-78; read-out: Lexibulin (CYT997)): 6 nM
- IC50 (Karpas-299; read-out: Lexibulin (CYT997)): 4 nM
- IC50 (LnCaP; read-out: Lexibulin (CYT997)): 52 nM
- IC50 (MCF-7; read-out: Lexibulin (CYT997)): 12 nM
- IC50 (MDA-MB-468): 685 nM
- IC50 (MESSA [1]; read-out: Lexibulin (CYT997)): 24 nM
- IC50 (MOLM-14): 45 nM
- IC50 (NALM-6; read-out: Lexibulin (CYT997)): 9 nM
- IC50 (NOMO-1): 280 nM
- IC50 (PANC-1): 13 nM
- IC50 (PC-3; read-out: Lexibulin (CYT997)): 142 nM
- IC50 (PLC-PRF5): 25 nM
- IC50 (REC-1; read-out: Lexibulin (CYT997)): 10 nM
- IC50 (THP-1): 9 nM
- IC50 (Tov21G): 13 nM
- IC50 (U-118): 13 nM
- IC50 (U87-MG): 20 nM

SMILES: CC[C@]1(O)C[C@H]2CN(CCc3c([nH]c4ccccc34)[C@@](C(=O)OC)(c3cc4c(cc3OC)N(C=O)[C@H]3[C@@](O)(C(=O)OC)[C@H](OC(C)=O)[C@]5(CC)C=CCN6CC[C@]43[C@@H]65)C2)C1 [Vincristine]
- IC50 (TG-LAM-134-P0; read-out: IC50 (µM) / Vinc): 0.17 µM
- IC50 (TG-LAM-135-P0; read-out: IC50 (µM) / Vinc): > 2 µM
- IC50 (TG-LAM-136-P0; read-out: IC50 (µM) / Vinc): 1.35 µM
- IC50 (TG-LAM-138-P0; read-out: IC50 (µM) / Vinc): > 2 µM
- IC50 (TG-LAM-139-P0; read-out: IC50 (µM) / Vinc): > 2 µM
- IC50 (TG-LAM-140-P0; read-out: IC50 (µM) / Vinc): 1.13 µM
- IC50 (TG-LAM-141-P0; read-out: IC50 (µM) / Vinc): 1.38 µM
- IC50 (TG-LAM-142-P0; read-out: IC50 (µM) / Vinc): > 2 µM
- IC50 (TG-LAM-144-P0; read-out: IC50 (µM) / Vinc): 1.6 µM
- IC50 (TG-LAM-145-P0; read-out: IC50 (µM) / Vinc): > 2 µM
- IC50 (TG-LAM-77-P0; read-out: IC50 (µM) / Vinc): > 2 µM
- IC50 (ACHN; read-out: Vincristine): 166 nM
- IC50 (HRT-18; read-out: Vincristine): 13 nM
- IC50 (LnCaP; read-out: Vincristine): 66 nM
- IC50 (MCF-7; read-out: Vincristine): 37 nM
- IC50 (MESSA [1]; read-out: Vincristine): 106 nM
- IC50 (PC-3; read-out: Vincristine): 23 nM
- IC50 (REC-1; read-out: Vincristine): 56 nM
- IC50 (SW-872; read-out: Vincristine): 31 nM
- IC50 (MESSA [2]): 7.9 ± 6 nM

SMILES: CC(=O)O[C@H]1C(=O)[C@@]2(C)[C@H]([C@H](OC(=O)c3ccccc3)[C@]3(O)C[C@H](OC(=O)[C@H](O)[C@@H](NC(=O)c4ccccc4)c4ccccc4)C(C)=C1C3(C)C)[C@]1(OC(C)=O)CO[C@@H]1C[C@@H]2O [paclitaxel]
- IC50 (MESSA [2]): 8 ± 5 nM
